# Source: PubChem BioAssay (NCI)
#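 Test compounds were applied to cells in 96-well plates for 48 hours at 5 doses. TGI is the concentration that stops growth completely.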
# Test system: SR leukemia
# Test: NCI tumour cell line growth inhibition, 48 h
row,SMILES,TGI [µM]
1,Cc1ccc(N=Nc2c(C)c(C#N)c(=S)n(C3OC(CO)C(O)C(O)C3O)c2C)cc1 (centres undefined),> 100
2,COc1cc(/C=C2\N=C(c3ccccc3)N(c3nc4c(OC)ccc(OC)c4s3)C2=O)ccc1O,> 100
3,O=C(Cc1ccccc1)N/N=C/c1ccccc1O,> 100
4,CC(C)=CC(=O)C[C@H]1C(=O)O[C@@H]2C[C@H]3C(C)=CC(=O)[C@@H](O)[C@]3(C)[C@H]3[C@@]4(O)OC[C@]32[C@@H]1[C@@H](C)[C@H]4O,> 100
5,COC(=O)C1C(=O)C=CN([C@H](C)c2ccccc2)[C@@H]1Cc1ccc(OC)c(OCc2ccccc2)c1I (some centres undefined),> 100
6,CN(C)CCCN1c2ccccc2Sc2cnccc21,> 100
7,COc1ccc(C2C3=C(Nc4ncnn42)c2ccccc2OC3c2ccccc2)cc1 (centres undefined),> 100
8,C/C=C(/C)C(=O)O[C@H]1C[C@@H]2[C@@H](O)c3occ(C)c3C[C@]2(C)[C@@H](C)C1,43.8
9,Cc1cc(C)n(C2OC(CO)C(O)C(O)C2O)c(=S)c1C#N (centres undefined),> 100
10,COC(=O)C(COC(C)=O)NC(=O)/C=C/c1ccc(O)c(OC(C)=O)c1 (centres undefined),> 100
11,O=c1[nH]nc(Cc2ccccc2)[nH]1,> 100
12,CCOP(=O)(CN1CCNCCNCC1)OCC,> 100
13,CN(/N=C/c1ccc(OCc2cccc(COc3ccc(C=O)cc3)n2)cc1)c1cnn(-c2ccc(Cl)cc2Cl)c(=O)c1Cl,> 100
14,CC(C)Oc1ccc2c(c1)OCC1Cc3ccccc3OC21 (centres undefined),> 100
15,O=C1C(Cl)C(c2cccc(Cl)c2)N1c1ccc(-n2c(=S)[nH]c3ccccc3c2=O)cc1 (centres undefined),30
16,COc1cc2c(cc1OC)CCc1cc(OC)c(OC)cc1CC2,> 100
17,c1csc(-c2cc(-c3cccs3)c(-c3ccsc3)s2)c1,> 100
18,COc1ccc(N2C(=O)C3ON(C(C(N)=O)c4ccccc4)C(c4cc5ccccc5c5ccccc45)C3C2=O)cc1 (centres undefined),> 50
19,COc1ccccc1N1CCN(CCCN2/C(=C(\O)c3ccccc3)C(=O)c3c(C)cc(C)nc3S2(=O)=O)CC1,> 100
20,NC(CCC(=O)O)C(=O)N1CCN(c2nc(N3CCCC3)c3nc(Cl)c(NCc4ccccc4)nc3n2)CC1 (centres undefined),17.5
21,COC(=O)C(NC(=O)c1ccccc1)c1ccco1 (centres undefined),> 100
22,CN1C2CCC1CC(CCNC(c1ccccc1)c1ccccc1)C2 (centres undefined),40.3
23,c1ccc2c(c1)nc1n2CNC1,> 100
24,CC1ON2CCCC2[C@H]1C(=O)N1C2CC3CCC2(CS1(=O)=O)C3(C)C (some centres undefined),> 100
25,NNc1nncc2n[nH]nc12,> 100

# Test system: MOLT-4 leukemia
# Test: NCI tumour cell line growth inhibition, 48 h
row,SMILES,TGI [µM]
1,CCOC(=O)CN=C1NNS(=O)(=O)c2ccccc21,> 100
2,Cc1ccc(N=Nc2c(C)c(C#N)c(=S)n(C3OC(CO)C(O)C(O)C3O)c2C)cc1 (centres undefined),48.6
3,COc1cc(/C=C2\N=C(c3ccccc3)N(c3nc4c(OC)ccc(OC)c4s3)C2=O)ccc1O,39.5
4,O=C(Cc1ccccc1)N/N=C/c1ccccc1O,> 100
5,CC(C)=CC(=O)C[C@H]1C(=O)O[C@@H]2C[C@H]3C(C)=CC(=O)[C@@H](O)[C@]3(C)[C@H]3[C@@]4(O)OC[C@]32[C@@H]1[C@@H](C)[C@H]4O,> 100
6,COC(=O)C1C(=O)C=CN([C@H](C)c2ccccc2)[C@@H]1Cc1ccc(OC)c(OCc2ccccc2)c1I (some centres undefined),> 100
7,CN(C)CCCN1c2ccccc2Sc2cnccc21,> 100
8,COc1ccc(C2C3=C(Nc4ncnn42)c2ccccc2OC3c2ccccc2)cc1 (centres undefined),51
9,C/C=C(/C)C(=O)O[C@H]1C[C@@H]2[C@@H](O)c3occ(C)c3C[C@]2(C)[C@@H](C)C1,37.1
10,Cc1cc(C)n(C2OC(CO)C(O)C(O)C2O)c(=S)c1C#N (centres undefined),> 100
11,COC(=O)C(COC(C)=O)NC(=O)/C=C/c1ccc(O)c(OC(C)=O)c1 (centres undefined),> 100
12,O=c1[nH]nc(Cc2ccccc2)[nH]1,> 100
13,CCOP(=O)(CN1CCNCCNCC1)OCC,> 100
14,CN(/N=C/c1ccc(OCc2cccc(COc3ccc(C=O)cc3)n2)cc1)c1cnn(-c2ccc(Cl)cc2Cl)c(=O)c1Cl,> 100
15,CC(C)Oc1ccc2c(c1)OCC1Cc3ccccc3OC21 (centres undefined),> 100
16,O=C1C(Cl)C(c2cccc(Cl)c2)N1c1ccc(-n2c(=S)[nH]c3ccccc3c2=O)cc1 (centres undefined),37.6
17,COc1cc2c(cc1OC)CCc1cc(OC)c(OC)cc1CC2,> 100
18,c1csc(-c2cc(-c3cccs3)c(-c3ccsc3)s2)c1,> 100
19,COc1ccc(N2C(=O)C3ON(C(C(N)=O)c4ccccc4)C(c4cc5ccccc5c5ccccc45)C3C2=O)cc1 (centres undefined),46.9
20,COc1ccccc1N1CCN(CCCN2/C(=C(\O)c3ccccc3)C(=O)c3c(C)cc(C)nc3S2(=O)=O)CC1,> 100
21,NC(CCC(=O)O)C(=O)N1CCN(c2nc(N3CCCC3)c3nc(Cl)c(NCc4ccccc4)nc3n2)CC1 (centres undefined),24.7
22,COC(=O)C(NC(=O)c1ccccc1)c1ccco1 (centres undefined),> 100
23,CN1C2CCC1CC(CCNC(c1ccccc1)c1ccccc1)C2 (centres undefined),> 100
24,c1ccc2c(c1)nc1n2CNC1,> 100
25,CC1ON2CCCC2[C@H]1C(=O)N1C2CC3CCC2(CS1(=O)=O)C3(C)C (some centres undefined),> 100
26,NNc1nncc2n[nH]nc12,> 100

# Test system: SF-268 CNS
# Test: NCI tumour cell line growth inhibition, 48 h
row,SMILES,TGI [µM]
1,CCOC(=O)CN=C1NNS(=O)(=O)c2ccccc21,> 100
2,Cc1ccc(N=Nc2c(C)c(C#N)c(=S)n(C3OC(CO)C(O)C(O)C3O)c2C)cc1 (centres undefined),> 100
3,COc1cc(/C=C2\N=C(c3ccccc3)N(c3nc4c(OC)ccc(OC)c4s3)C2=O)ccc1O,> 100
4,O=C(Cc1ccccc1)N/N=C/c1ccccc1O,> 100
5,CC(C)=CC(=O)C[C@H]1C(=O)O[C@@H]2C[C@H]3C(C)=CC(=O)[C@@H](O)[C@]3(C)[C@H]3[C@@]4(O)OC[C@]32[C@@H]1[C@@H](C)[C@H]4O,0.21
6,COC(=O)C1C(=O)C=CN([C@H](C)c2ccccc2)[C@@H]1Cc1ccc(OC)c(OCc2ccccc2)c1I (some centres undefined),41.1
7,CN(C)CCCN1c2ccccc2Sc2cnccc21,> 100
8,COc1ccc(C2C3=C(Nc4ncnn42)c2ccccc2OC3c2ccccc2)cc1 (centres undefined),> 100
9,C/C=C(/C)C(=O)O[C@H]1C[C@@H]2[C@@H](O)c3occ(C)c3C[C@]2(C)[C@@H](C)C1,31
10,Cc1cc(C)n(C2OC(CO)C(O)C(O)C2O)c(=S)c1C#N (centres undefined),> 100
11,COC(=O)C(COC(C)=O)NC(=O)/C=C/c1ccc(O)c(OC(C)=O)c1 (centres undefined),> 100
12,O=c1[nH]nc(Cc2ccccc2)[nH]1,> 100
13,CN(/N=C/c1ccc(OCc2cccc(COc3ccc(C=O)cc3)n2)cc1)c1cnn(-c2ccc(Cl)cc2Cl)c(=O)c1Cl,> 100
14,CC(C)Oc1ccc2c(c1)OCC1Cc3ccccc3OC21 (centres undefined),> 100
15,O=C1C(Cl)C(c2cccc(Cl)c2)N1c1ccc(-n2c(=S)[nH]c3ccccc3c2=O)cc1 (centres undefined),39
16,c1csc(-c2cc(-c3cccs3)c(-c3ccsc3)s2)c1,> 100
17,COc1ccc(N2C(=O)C3ON(C(C(N)=O)c4ccccc4)C(c4cc5ccccc5c5ccccc45)C3C2=O)cc1 (centres undefined),> 50
18,COc1ccccc1N1CCN(CCCN2/C(=C(\O)c3ccccc3)C(=O)c3c(C)cc(C)nc3S2(=O)=O)CC1,> 100
19,NC(CCC(=O)O)C(=O)N1CCN(c2nc(N3CCCC3)c3nc(Cl)c(NCc4ccccc4)nc3n2)CC1 (centres undefined),29.1
20,COC(=O)C(NC(=O)c1ccccc1)c1ccco1 (centres undefined),> 100
21,CN1C2CCC1CC(CCNC(c1ccccc1)c1ccccc1)C2 (centres undefined),> 100
22,c1ccc2c(c1)nc1n2CNC1,> 100
23,CC1ON2CCCC2[C@H]1C(=O)N1C2CC3CCC2(CS1(=O)=O)C3(C)C (some centres undefined),> 100
24,NNc1nncc2n[nH]nc12,> 100

# Test system: M14 melanoma
# Test: NCI tumour cell line growth inhibition, 48 h
row,SMILES,TGI [µM]
1,CCOC(=O)CN=C1NNS(=O)(=O)c2ccccc21,> 100
2,Cc1ccc(N=Nc2c(C)c(C#N)c(=S)n(C3OC(CO)C(O)C(O)C3O)c2C)cc1 (centres undefined),41.7
3,COc1cc(/C=C2\N=C(c3ccccc3)N(c3nc4c(OC)ccc(OC)c4s3)C2=O)ccc1O,> 100
4,O=C(Cc1ccccc1)N/N=C/c1ccccc1O,22.8
5,CC(C)=CC(=O)C[C@H]1C(=O)O[C@@H]2C[C@H]3C(C)=CC(=O)[C@@H](O)[C@]3(C)[C@H]3[C@@]4(O)OC[C@]32[C@@H]1[C@@H](C)[C@H]4O,0.115
6,COC(=O)C1C(=O)C=CN([C@H](C)c2ccccc2)[C@@H]1Cc1ccc(OC)c(OCc2ccccc2)c1I (some centres undefined),30.2
7,CN(C)CCCN1c2ccccc2Sc2cnccc21,> 100
8,COc1ccc(C2C3=C(Nc4ncnn42)c2ccccc2OC3c2ccccc2)cc1 (centres undefined),> 100
9,C/C=C(/C)C(=O)O[C@H]1C[C@@H]2[C@@H](O)c3occ(C)c3C[C@]2(C)[C@@H](C)C1,29.9
10,Cc1cc(C)n(C2OC(CO)C(O)C(O)C2O)c(=S)c1C#N (centres undefined),> 100
11,COC(=O)C(COC(C)=O)NC(=O)/C=C/c1ccc(O)c(OC(C)=O)c1 (centres undefined),> 100
12,O=c1[nH]nc(Cc2ccccc2)[nH]1,> 100
13,CCOP(=O)(CN1CCNCCNCC1)OCC,> 100
14,CN(/N=C/c1ccc(OCc2cccc(COc3ccc(C=O)cc3)n2)cc1)c1cnn(-c2ccc(Cl)cc2Cl)c(=O)c1Cl,> 100
15,CC(C)Oc1ccc2c(c1)OCC1Cc3ccccc3OC21 (centres undefined),> 100
16,O=C1C(Cl)C(c2cccc(Cl)c2)N1c1ccc(-n2c(=S)[nH]c3ccccc3c2=O)cc1 (centres undefined),58.7
17,COc1cc2c(cc1OC)CCc1cc(OC)c(OC)cc1CC2,> 100
18,c1csc(-c2cc(-c3cccs3)c(-c3ccsc3)s2)c1,> 100
19,COc1ccc(N2C(=O)C3ON(C(C(N)=O)c4ccccc4)C(c4cc5ccccc5c5ccccc45)C3C2=O)cc1 (centres undefined),> 50
20,COc1ccccc1N1CCN(CCCN2/C(=C(\O)c3ccccc3)C(=O)c3c(C)cc(C)nc3S2(=O)=O)CC1,> 100
21,NC(CCC(=O)O)C(=O)N1CCN(c2nc(N3CCCC3)c3nc(Cl)c(NCc4ccccc4)nc3n2)CC1 (centres undefined),22.6
22,COC(=O)C(NC(=O)c1ccccc1)c1ccco1 (centres undefined),> 100
23,CN1C2CCC1CC(CCNC(c1ccccc1)c1ccccc1)C2 (centres undefined),24.9
24,c1ccc2c(c1)nc1n2CNC1,> 100
25,CC1ON2CCCC2[C@H]1C(=O)N1C2CC3CCC2(CS1(=O)=O)C3(C)C (some centres undefined),> 100
26,NNc1nncc2n[nH]nc12,> 100

# Test system: T-47D breast
# Test: NCI tumour cell line growth inhibition, 48 h
row,SMILES,TGI [µM]
1,CCOC(=O)CN=C1NNS(=O)(=O)c2ccccc21,> 100
2,Cc1ccc(N=Nc2c(C)c(C#N)c(=S)n(C3OC(CO)C(O)C(O)C3O)c2C)cc1 (centres undefined),46
3,COc1cc(/C=C2\N=C(c3ccccc3)N(c3nc4c(OC)ccc(OC)c4s3)C2=O)ccc1O,26.4
4,O=C(Cc1ccccc1)N/N=C/c1ccccc1O,> 100
5,CC(C)=CC(=O)C[C@H]1C(=O)O[C@@H]2C[C@H]3C(C)=CC(=O)[C@@H](O)[C@]3(C)[C@H]3[C@@]4(O)OC[C@]32[C@@H]1[C@@H](C)[C@H]4O,0.144
6,COC(=O)C1C(=O)C=CN([C@H](C)c2ccccc2)[C@@H]1Cc1ccc(OC)c(OCc2ccccc2)c1I (some centres undefined),60.9
7,CN(C)CCCN1c2ccccc2Sc2cnccc21,> 100
8,COc1ccc(C2C3=C(Nc4ncnn42)c2ccccc2OC3c2ccccc2)cc1 (centres undefined),59.4
9,C/C=C(/C)C(=O)O[C@H]1C[C@@H]2[C@@H](O)c3occ(C)c3C[C@]2(C)[C@@H](C)C1,30
10,Cc1cc(C)n(C2OC(CO)C(O)C(O)C2O)c(=S)c1C#N (centres undefined),> 100
11,COC(=O)C(COC(C)=O)NC(=O)/C=C/c1ccc(O)c(OC(C)=O)c1 (centres undefined),> 100
12,O=c1[nH]nc(Cc2ccccc2)[nH]1,> 100
13,CCOP(=O)(CN1CCNCCNCC1)OCC,> 100
